US6461997B1, “Triazole sulfones having herbicidal activity” (Monsanto Technology LLC, priority 1999, dated 2002)

Key:
[1] = system: GALAP (catchweed bedstraw); assay: Pre-plant incorporated (PPI) herbicidal activity, cool season; type: in vivo, Galium aparine; details: for PPI activity GR80, GALAP: pre-plant incorporated, lowest tested rate with 80% or greater inhibition, about 14 days; for Percent inhibition GALAP: weed, PPI application
Procedure: (§1) In another set of tests, the pre-plant incorporated (PPI) activity of compounds of this invention was evaluated on the same species as for the pre-emergence tests described above. In the PPI tests the following procedure, designed to simulate PPI application, was used.
(§2) A pre-prepared topsoil mixture (described above) was placed in a pot and compacted to a depth of 1.0 to 1.25 cm from the top of the pot. Seeds of each of several monocotyledonous and dicotyledonous annual plant species were placed on top of the soil. A sufficient quantity of soil to cover the seeds and level fill the pot was weighed into an open container. A known amount of the test compound was dissolved or suspended in an organic solvent and applied by spraying to this cover soil. The cover soil was thoroughly mixed to distribute the test compound throughout the cover soil, and was then applied as a cover layer over the seeds. Untreated soil was used as a cover layer for control pots. After treatment the plants were placed in a greenhouse where they received 0.64 cm of overhead irrigation. All subsequent watering consisted of a light overhead mist and/or subirrigation as needed for germination and growth. Tables 9 and 10 below relate to warm season plant species which were placed after pre-emergence treatment in a greenhouse with a 30/21° C. day/night temperature regime. Tables 11 and 12 below relates to cool season plant species placed after pre-emergence treatment in a greenhouse or growth chamber with an 18/13° C. day/night temperature regime. Only the compounds of Examples 1, 6, 8, 11, 13 and 15-20 were included in PPI tests.
(§3) Approximately 14 days after planting and treating, the plants were observed and herbicidal efficacy recorded as percent inhibition by comparison with untreated plants.

rice (ORYSA) = assay: Selectivity test, PPI, warm season crop; type: in vivo, Oryza sativa; details: PPI application
Procedure: as §2, §3
(§4) Additional pre-emergence and PPI tests were conducted by the procedures described above, on warm and cool season weed species in the presence of crop species, to assess herbicidal selectivity. Crop species included in warm season tests were corn (Zea mays, ZEAMX), rice (Oryza sativa, ORYSA) and soybean (Glycine max, GLYMX). Crop species included in cool season tests were wheat (Triticum aestivum, TRZAW), barley (Hordeunm vulgare, HORVX) and oilseed rape (Brassica napus, BRSNS).
(§5) Tables 15 and 16 relate to pre-emergence and PPI tests respectively on warm season species. Table 17 relates to pre-emergence tests on cool season species.

LOLMG (annual ryegrass) = assay: Pre-plant incorporated (PPI) herbicidal activity, cool season; type: in vivo, Lolium multiflorum; details: for PPI activity GR80, LOLMG: pre-plant incorporated, lowest tested rate with 80% or greater inhibition, about 14 days; for Percent inhibition LOLMG: weed, PPI application
Procedure: as §1, §2, §3

[2] = system: BRAPP (broadleaf signalgrass); assay: Pre-plant incorporated (PPI) herbicidal activity, warm season; type: in vivo, Brachiaria platyphylla; details: for PPI activity GR80, BRAPP: pre-plant incorporated, lowest tested rate with 80% or greater inhibition, about 14 days
Procedure: as §1, §2, §3

SETVI (green foxtail) = assay: Post-emergence herbicidal activity, cool season; type: in vivo, Setaria viridis; details: abraded plants sprayed at 300, 100, 30 and 10 g/ha; about 14 days after treatment
In short: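 Seeds sown in topsoil, covered with 50% topsoil/50% Rediearth™, subirrigated. At 9 to 14 days, foliage abraded, then sprayed at 300, 100, 30 or 10 g/ha in acetone/water 50:50. Plants held at 18/13° C. day/night, rated for % inhibition at ~14 days, GR80 assigned.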

POLCO (wild buckwheat) = assay: Pre-plant incorporated (PPI) herbicidal activity, cool season; type: in vivo, Polygonum convolvulus; details: for PPI activity GR80, POLCO: pre-plant incorporated, lowest tested rate with 80% or greater inhibition, about 14 days; for Percent inhibition POLCO: weed, PPI application
Procedure: as §1, §2, §3

corn (ZEAMX) = assay: Selectivity test, PPI, warm season crop; type: in vivo, Zea mays; details: PPI application
Procedure: as §2, §3, §4, §5

STEME (common chickweed) = assay: Pre-plant incorporated (PPI) herbicidal activity, cool season; type: in vivo, Stellaria media; details: for PPI activity GR80, STEME: pre-plant incorporated, lowest tested rate with 80% or greater inhibition, about 14 days; for Percent inhibition STEME: weed, PPI application
Procedure: as §1, §2, §3

barley (HORVX) = assay: Selectivity test, PPI, cool season crop; type: in vivo, Hordeunm vulgare; details: PPI application
Procedure: as §2, §3, §4, §5

[3] = system: AGSST (creeping bentgrass); assay: Pre-plant incorporated (PPI) herbicidal activity, cool season; type: in vivo, Agrostis stolonifera; details: for PPI activity GR80, AGSST: pre-plant incorporated, lowest tested rate with 80% or greater inhibition, about 14 days; for Percent inhibition AGSST: weed, PPI application
Procedure: as §1, §2, §3

## CCN(CC)C(=O)n1cnc(S(=O)(=O)C(F)(F)SCC(=O)OC)n1 [Example 11]
[1]
  PPI activity GR80, GALAP: 300 g/ha
[1]; 10 g/ha
  Percent inhibition GALAP: 0%
[1]; 30 g/ha
  Percent inhibition GALAP: 0%
[1]; 100 g/ha
  Percent inhibition GALAP: 0%
[1]; 300 g/ha
  Percent inhibition GALAP: 20%
[1]; 900 g/ha
  Percent inhibition GALAP: 90%
Rice (ORYSA); 10 g/ha
  Percent inhibition ORYSA: 0%
Rice (ORYSA); 30 g/ha
  Percent inhibition ORYSA: 0%
Rice (ORYSA); 100 g/ha
  Percent inhibition ORYSA: 0%
Rice (ORYSA); 300 g/ha
  Percent inhibition ORYSA: 40%
Rice (ORYSA); 900 g/ha
  Percent inhibition ORYSA: 40%
LOLMG (annual ryegrass)
  PPI activity GR80, LOLMG: [empty]
LOLMG (annual ryegrass); 10 g/ha
  Percent inhibition LOLMG: 20%
LOLMG (annual ryegrass); 30 g/ha
  Percent inhibition LOLMG: 40%
LOLMG (annual ryegrass); 100 g/ha
  Percent inhibition LOLMG: 70%
LOLMG (annual ryegrass); 300 g/ha
  Percent inhibition LOLMG: 99%
LOLMG (annual ryegrass); 900 g/ha
  Percent inhibition LOLMG: 95%
[2]; PPI application, 10 g/ha
  Percent inhibition BRAPP: 0%
[2]; PPI application, 30 g/ha
  Percent inhibition BRAPP: 0%
[2]; PPI application, 100 g/ha
  Percent inhibition BRAPP: 60%
[2]; PPI application, 300 g/ha
  Percent inhibition BRAPP: 100%
[2]; PPI application, 900 g/ha
  Percent inhibition BRAPP: 100%
[2]
  PPI activity GR80, BRAPP: 300 g/ha
SETVI (green foxtail)
  Post-emergence activity GR80, SETVI: [empty]
POLCO (wild buckwheat)
  PPI activity GR80, POLCO: * (activity observed, at least at highest rate, but <80% inhibition)
POLCO (wild buckwheat); 10 g/ha
  Percent inhibition POLCO: 0%
POLCO (wild buckwheat); 30 g/ha
  Percent inhibition POLCO: 0%
POLCO (wild buckwheat); 100 g/ha
  Percent inhibition POLCO: 0%
POLCO (wild buckwheat); 300 g/ha
  Percent inhibition POLCO: 0%
POLCO (wild buckwheat); 900 g/ha
  Percent inhibition POLCO: 30%
Corn (ZEAMX); 10 g/ha
  Percent inhibition ZEAMX: 0%
Corn (ZEAMX); 30 g/ha
  Percent inhibition ZEAMX: 0%
Corn (ZEAMX); 100 g/ha
  Percent inhibition ZEAMX: 0%
Corn (ZEAMX); 300 g/ha
  Percent inhibition ZEAMX: 0%
Corn (ZEAMX); 900 g/ha
  Percent inhibition ZEAMX: 10%
STEME (common chickweed)
  PPI activity GR80, STEME: 300 g/ha
STEME (common chickweed); 10 g/ha
  Percent inhibition STEME: 0%
STEME (common chickweed); 30 g/ha
  Percent inhibition STEME: 0%
STEME (common chickweed); 100 g/ha
  Percent inhibition STEME: 0%
STEME (common chickweed); 300 g/ha
  Percent inhibition STEME: 0%
STEME (common chickweed); 900 g/ha
  Percent inhibition STEME: 30%
Barley (HORVX); 10 g/ha
  Percent inhibition HORVX: 0%
Barley (HORVX); 30 g/ha
  Percent inhibition HORVX: 0%
Barley (HORVX); 100 g/ha
  Percent inhibition HORVX: 0%
Barley (HORVX); 300 g/ha
  Percent inhibition HORVX: 0%
Barley (HORVX); 900 g/ha
  Percent inhibition HORVX: 10%
[3]
  PPI activity GR80, AGSST: 300 g/ha
[3]; 10 g/ha
  Percent inhibition AGSST: 60%
[3]; 30 g/ha
  Percent inhibition AGSST: 50%
[3]; 100 g/ha
  Percent inhibition AGSST: 60%
[3]; 300 g/ha
  Percent inhibition AGSST: 90%
[3]; 900 g/ha
  Percent inhibition AGSST: 100%

## CCN(CC)C(=O)n1cnc(S(=O)(=O)C(F)F)n1 [Example 15, 1-(N,N-diethylcarbamoyl)-3-(difluoromethylsulfonyl)-1,2,4-triazole]
[1]
  PPI activity GR80, GALAP: 30 g/ha
Rice (ORYSA); Oryza sativa, 10 g/ha, read-out: Percent inhibition ORYSA
  inhibition at 10 g/ha: 0%
Rice (ORYSA); Oryza sativa, 30 g/ha, read-out: Percent inhibition ORYSA
  inhibition at 30 g/ha: 0%
Rice (ORYSA); Oryza sativa, 100 g/ha, read-out: Percent inhibition ORYSA
  inhibition at 100 g/ha: 0%
Rice (ORYSA); Oryza sativa, 300 g/ha, read-out: Percent inhibition ORYSA
  inhibition at 300 g/ha: 0%
Rice (ORYSA); Oryza sativa, 900 g/ha, read-out: Percent inhibition ORYSA
  inhibition at 900 g/ha: 0%
LOLMG (annual ryegrass)
  PPI activity GR80, LOLMG: 100 g/ha
[2]; Urochloa platyphylla, PPI application, 10 g/ha, read-out: Percent inhibition BRAPP
  inhibition at 10 g/ha: 0%
[2]; Urochloa platyphylla, PPI application, 30 g/ha, read-out: Percent inhibition BRAPP
  inhibition at 30 g/ha: 0%
[2]; Urochloa platyphylla, PPI application, 100 g/ha, read-out: Percent inhibition BRAPP
  inhibition at 100 g/ha: 95%
[2]; Urochloa platyphylla, PPI application, 300 g/ha, read-out: Percent inhibition BRAPP
  inhibition at 300 g/ha: 99%
[2]; Urochloa platyphylla, PPI application, 900 g/ha, read-out: Percent inhibition BRAPP
  inhibition at 900 g/ha: 100%
[2]
  PPI activity GR80, BRAPP: 100 g/ha
SETVI (green foxtail)
  Post-emergence activity GR80, SETVI: [empty]
POLCO (wild buckwheat)
  PPI activity GR80, POLCO: 300 g/ha
Corn (ZEAMX); Zea mays, 10 g/ha, read-out: Percent inhibition ZEAMX
  inhibition at 10 g/ha: 0%
Corn (ZEAMX); Zea mays, 30 g/ha, read-out: Percent inhibition ZEAMX
  inhibition at 30 g/ha: 0%
Corn (ZEAMX); Zea mays, 100 g/ha, read-out: Percent inhibition ZEAMX
  inhibition at 100 g/ha: 20%
Corn (ZEAMX); Zea mays, 300 g/ha, read-out: Percent inhibition ZEAMX
  inhibition at 300 g/ha: 60%
Corn (ZEAMX); Zea mays, 900 g/ha, read-out: Percent inhibition ZEAMX
  inhibition at 900 g/ha: 85%
STEME (common chickweed)
  PPI activity GR80, STEME: 300 g/ha
[3]
  PPI activity GR80, AGSST: 100 g/ha
